Like-named read-outs stand apart in the source and are kept apart here.
Columns and labels:
[1] = biological target: T1, RORγ ligand binding domain (LBD) (Homo sapiens, UniProt P51449); experiment: TR-FRET Activity Assay (ligand sensing, RORγ-LBD / coactivator peptide interaction, LANCE); type: biochemical
T1 construct: made in house; host or cells: E. coli BL-21 (BL3), vector pDEST15
T1 sequence (P51449 269-508 limits assumed): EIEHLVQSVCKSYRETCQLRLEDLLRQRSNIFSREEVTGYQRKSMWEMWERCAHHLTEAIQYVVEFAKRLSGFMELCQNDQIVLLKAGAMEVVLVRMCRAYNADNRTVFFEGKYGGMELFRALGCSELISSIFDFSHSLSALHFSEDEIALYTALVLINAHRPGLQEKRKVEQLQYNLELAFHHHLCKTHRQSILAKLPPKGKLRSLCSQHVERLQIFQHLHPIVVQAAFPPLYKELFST

RORγ = biological target: T2, RORγ (UniProt P51449); experiment: RORγ Gal4 Reporter Gene Assay in 293T cells (firefly and renilla luciferase); type: cell-based, human
T2 sequence (P51449 1-518): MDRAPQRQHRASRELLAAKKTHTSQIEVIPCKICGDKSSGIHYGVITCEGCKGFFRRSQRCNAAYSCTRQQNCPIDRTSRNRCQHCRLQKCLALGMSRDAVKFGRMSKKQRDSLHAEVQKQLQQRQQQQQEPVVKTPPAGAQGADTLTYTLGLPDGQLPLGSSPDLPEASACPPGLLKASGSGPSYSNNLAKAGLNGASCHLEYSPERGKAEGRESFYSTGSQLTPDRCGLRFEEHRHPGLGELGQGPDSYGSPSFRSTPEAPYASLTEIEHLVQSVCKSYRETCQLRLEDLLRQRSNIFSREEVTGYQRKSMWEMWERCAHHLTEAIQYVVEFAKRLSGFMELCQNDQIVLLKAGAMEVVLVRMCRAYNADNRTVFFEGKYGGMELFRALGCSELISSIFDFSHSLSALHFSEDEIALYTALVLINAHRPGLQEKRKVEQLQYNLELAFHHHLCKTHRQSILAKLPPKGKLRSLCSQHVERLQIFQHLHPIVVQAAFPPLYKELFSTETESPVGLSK

[2] = first value of the cell FRET/FF/REN, TR-FRET activity assay, read-out: pIC50 (FRET) (converted)
[3] = second value of the cell, Gal4 reporter gene assay in 293T cells, firefly luciferase
[4] = third value of the cell, Gal4 reporter gene assay in 293T cells, renilla normalised luciferase

| IC50 [1, 2] [nM] | pIC50 (FF) (RORγ; [3]) | pIC50 (REN) (RORγ; [4]) | SMILES | IC50 [1] [nM] | pIC50 (FF) (RORγ) | pIC50 (REN) (RORγ) |
| --- | --- | --- | --- | --- | --- | --- |
| 1260 | 6.4 | 6.5 | Cc1c(C(=O)NC2(C#N)CC2)cc(-c2cc(C(C)(C)C)cc(C(C)(C)C)c2)n1CC1CCCCC1 [1/12] | – | – | – |
| 398 | 6.8 | 7.1 | Cc1c(C(=O)NC2CCOCC2)cc(-c2ccc(CN3CCOCC3(C)C)c(C(F)(F)F)c2)n1CC1CCCCC1 [Example 34, 1-(Cyclohexylmethyl)-5-(4-((3,3-dimethylmorpholino)methyl)-3-(trifluoromethyl)phenyl)-2-methyl-N-(tetrahydro-2H-pyran-4-yl)-1H-pyrrole-3-carboxamide] | – | – | – |
| 398 | 6.2 | 6.2 | CC(C)(C)NS(=O)(=O)c1ccc(-c2cc(C(=O)N[C@H]3C[C@H](C(=O)O)C3)c(F)n2CC2CCCCC2)cc1C(F)(F)F [20/7] | – | – | – |
| 2510 | 7.0 | 7.0 | Cc1c(C(=O)NCC(C)(C)O)cc(-c2ccc(S(=O)(=O)NC(C)(C)C)c3ccccc23)n1CC1CCC(F)(F)CC1 [17/278] | – | – | – |
| 1000 | 6.2 | 6.2 | Cc1c(C(=O)NC[C@H](C)O)cc(-c2cc(C(C)(C)C)cc(C(C)(C)C)c2)n1CC1CCCCC1 [1/60] | – | – | – |
| 126 | 6.9/6.9/6.9 | 6.9/6.9/6.9 | Cc1c(C(=O)NC2COC2)cc(-c2cc(C(C)(C)C)cc(C(C)(C)C)c2)n1CCC1CCCC1 [1/116] | – | – | – |
| 1580 | 7.3 | 7.3 | Cc1c(C(=O)NCC(C)(C)C(=O)O)cc(-c2ccc(S(=O)(=O)NC(C)(C)C)c(C(C)(C)C)c2)n1CC1CCCCC1 [1/129] | – | – | – |
| 631 | 8.1 | 8.2 | Cc1c(C(=O)NC2CCOCC2)cc(-c2ccc(S(=O)(=O)NC(C)(C)C)c3ccccc23)n1CC1CCCCC1 [17/236] | – | – | – |
| 631 | 7.6 | 7.6 | Cc1c(C(=O)N[C@H]2C[C@H](C(=O)O)C2)cc(-c2cc(OCC(C)(C)C)nc(C(C)(C)C)c2)n1CC1CCCCC1 [17/195] | – | – | – |
| 1260 | 6.5 | 6.5 | Cc1c(C(=O)NCCS(N)(=O)=O)cc(-c2cc(C(C)(C)O)cc(C3(C)CC3)c2)n1CC1CCCCC1 [17/315] | – | – | – |
| 1260 | 7.1 | 7.2 | Cc1c(C(=O)NCCC(C)(C)C(=O)O)cc(-c2ccc(S(=O)(=O)NC(C)(C)C)c(C(F)(F)F)c2Cl)n1CC1CCCCC1 [17/289] | – | – | – |
| 631 | 7.8 | 8.0 | Cc1c(C(=O)N2CC3(CCS(=O)(=O)CC3)C2)cc(-c2ccc(S(=O)(=O)NC(C)(C)C)c3ccccc23)n1CC1CCCCC1 [17/270] | – | – | – |
| 398 | 6.6 | 6.5 | Cc1c(C(=O)NC2COC2)cc(-c2cc(C(C)(C)C)cc(C(C)(C)C)c2)n1S(=O)(=O)N1CCC2(CCCC2)C1 [7/6] | – | – | – |
| 631 | 7.1 | 7.2 | Cc1c(C(=O)NCC(C)(C)NS(=O)(=O)C2CC2)cc(-c2cc(C(C)(C)C)c3c(c2)C2(CCO3)CC2)n1CC1CCCCC1 [17/33] | – | – | – |
| 1000 | 6.3 | 6.3 | Cc1c(C(=O)NC2COC2)cc(-c2cc(C(=O)NC(C)C)cc(C(F)(F)F)c2)n1CC1CCCCC1 [15/2] | – | – | – |
| 251 | 7.0 | 7.1 | Cc1c(C(=O)NC2CCOCC2)cc(-c2cc(Cl)cc(C3(C)CC3)c2)n1CC1CCCCC1 [17/296] | – | – | – |

The next lines start with the compound.

| SMILES | IC50 [1, 2] [nM] | pIC50 (FF) (RORγ; [3]) | pIC50 (REN) (RORγ; [4]) | IC50 [1] [nM] | pIC50 (FF) (RORγ) | pIC50 (REN) (RORγ) |
| --- | --- | --- | --- | --- | --- | --- |
| Cc1c(C(=O)NC2COC2)cc(-c2cc(C(C)(C)C)cc(C(C)(C)C)c2)n1S(=O)(=O)N1CCCC(C)C1 (stereo not drawn) [7/2] | – | – | – | 251 | 6.6/7.0/7.0 | 6.6/7.0/7.0 |
| Cc1c(C(=O)NC2(C)COC2)cc(-c2cc(C(C)(C)C)c3c(c2)C2(CCO3)CC2)n1CC1CCCCC1 [17/13] | – | – | – | 631 | 6.2/6.8/6.9 | 6.2/6.8/6.9 |
| Cc1c(C(=O)NC2COC2)cc(-c2cc(C(C)(C)C)c(F)c(C(C)(C)C)c2)n1CC1CCCCC1 [1/77] | 200 | 6.9 | 7.0 | – | – | – |
| Cc1c(C(=O)N[C@H]2C[C@H](C(=O)O)C2)cc(-c2cc(Cl)cc(C(=O)NC(C)(C)C)c2)n1CC1CCCCC1 [17/298] | 2510 | 5.9 | 6.0 | – | – | – |
| Cc1c(C(=O)NCC2COC2)cc(-c2cc(C(C)(C)C)cc(C(C)(C)C)c2)n1CC1CCCCC1 [17/43] | 200 | 7.4 | 7.4 | – | – | – |
| Cc1c(C(=O)N[C@H]2CCOC2)cc(-c2cc(C(C)(C)C)cc(C3(C)CC3)c2)n1CC1CCCCC1 [17/65] | – | 7.7 | 7.7 | 200 | – | – |
| Cc1c(C(=O)NCC(C)(C)NS(C)(=O)=O)cc(-c2cc(C(C)(C)C)cc(C3(C)CC3)c2)n1CC1CCCCC1 [17/67] | – | – | – | 251 | 6.6/7.7/7.5 | 6.6/7.7/7.5 |
| Cc1c(C(=O)NCCS(C)(=O)=O)cc(-c2cc(C(C)(C)C)c3c(c2)C2(CCO3)CC2)n1CC1CCCCC1 [1/104] | – | – | – | 501 | 6.3/6.8/6.8 | 6.3/6.8/6.8 |
| Cc1c(C(=O)N[C@H]2C[C@H](C(=O)O)C2)cc(-c2cc(C(C)(C)C)nc(C3(C)CC3)n2)n1CC1CCCCC1 [17/312] | 316 | 7.2 | 7.3 | – | – | – |
| Cc1n[nH]cc1-c1ccc(-c2cc(C(=O)NC3CCOCC3)c(C)n2CC2CCCCC2)cc1C(C)(C)C [26/1] | – | – | – | 251 | 6.6/7.4/7.5 | 6.6/7.4/7.5 |
| Cc1c(C(=O)NC2COC2)cc(-c2cc(C(=O)N(C)C(C)(C)C)nc(C(C)(C)C)c2)n1CC1CCCCC1 [6/1] | 2000 | 6.7 | 6.7 | – | – | – |
| Cc1c(C(=O)NCC(C)(C)C(N)=O)cc(-c2cc(C(C)(C)C)cc(C(C)(C)C)c2)n1CC1CCCCC1 [1/3] | – | – | – | 398 | 6.4/7.6/7.5 | 6.4/7.6/7.5 |
| Cc1c(C(=O)NCC(C)(C)C(N)=O)cc(-c2cc(C(C)(C)C)cc(C3(C)CC3)c2)n1CC1CCCCC1 [1/85] | 316 | 7.7 | 7.7 | – | – | – |

Reference: patent US9815851B2, “Pyrrolo carboxamides as modulators of orphan nuclear receptor RAR-related orphan receptor-gamma (RORγ, NR1F3) activity and for the treatment of chronic inflammatory and autoimmune diseases” (PHENEX PHARMACEUTICALS AG, priority 2011, dated 2017)
